Measured values from US20220151887A1 (AQUA BANK CO.,LTD., priority 2019, published 2022).

Tests used:
[1] = Experimental: (§1) The selection criteria were good health and no smoking. The subjects were allowed to sit in a sitting position for 30 minutes after entering a test room set at a room temperature of 24° C. and a relative humidity of 50% to acclimatize to the experimental environment. After acclimation, physiological measurements were conducted. As the physiological measurements, skin temperature measurements were performed.
<<Evaluation of Pupil Contraction Rate in Pupil Reaction to Light by Measuring Pupil Reaction to Light (Single Time Evaluation Test (FIG. 6))>>
After confirming that the pupil dilatation was stable, light stimulation was given for 0.1 seconds. […] The pupil contraction rate (CR), which is the rate of pupil contraction, was determined by the following expression:
Note that the pupil rapidly dilates after it contracts, and the pupil expanding speed (vd) at that time reflects the state of sympathetic nervous activity. The predominance of sympathetic nervous activity and parasympathetic nervous activity in autonomous nervous activity was determined by analysis of changes in pupil diameter.

[2] = remark: listed apart in the source
Experimental: as §1
<<Evaluation of Sympathetic Nervous Activity by Measuring Skin Temperature ((Single Time Evaluation Test (FIG. 7))>>
Since many of the peripheral blood vessel networks are controlled by sympathetic nervous activity, the predominance or inferiority of sympathetic nervous activity can be evaluated by measuring changes in blood flow in the peripheral site or changes in skin temperature in the peripheral site. Therefore, in this verification, the change in skin temperature was used as the index. In other words, changes in the skin temperatures (at the center of the forehead and the first segment pad of the index finger) of the peripheral site were measured by a temperature sensor (manufactured by Gram Corporation). The increased skin temperature in the test product is determined by the following expression:
where H1 is the temperature of the forehead center part of the control, F1 is the temperature of the finger pad center part of the control, H2 is the temperature of the forehead center part of the sample, and F2 is the temperature of the finger pad center part of the sample.
Note that, in the measurement data analysis in the physiological evaluation, the difference between the control and the blank and the difference between the test product and the blank were compared using the t-test. The significance level of the t-test was set to less than 5%.

[3] = hydrogen continuous use period 2 weeks, cheek, not significant vs non-continuous use period
Experimental: (§2) During the test period, each subject was required to perform the same skin care method as they do on a daily basis, and not to add or change cosmetics or supplements.
In other words, the subjects were divided into two groups, Group A and Group B each having 11 subjects. […] Skin physiological measurements were conducted at the start of the test (zero week), the second and fourth weeks (actually, the subjects also answered questionnaires of the 30 items of the stress checklist and the multifaceted emotion scale for verification of influences on stress, which is a factor of increased skin metabolism, as is omitted here). […]
(§3) The skin physiological measurements include: the stratum corneum water content; transepidermal water loss; skin viscoelasticity; skin color; facial image analysis by photographing with a digital imaging device (VSIA); and skin blood flow measurement with a non-contact blood flow meter. […] In the measurements listed below, the cheek site, which was the measurement site, was measured after 15 minutes of acclimation in a constant temperature and humidity chamber (temperature 20±2° C., humidity 50±10%) after the face washing. What was measured in each measurement are described below.
The degree of skin moisturization was determined by measuring the stratum corneum water content. […]

[4] = remark: listed apart in the source
Experimental: as §2
(§4) In other words, the subjects were divided into two groups, Group A and Group B each having 11 subjects. […] Skin physiological measurements were conducted at the start of the test (zero week), the second and fourth weeks (actually, the subjects also answered questionnaires of the 30 items of the stress checklist and the multifaceted emotion scale for verification of influences on stress, which is a factor of increased skin metabolism, as is omitted here). The measurement items include: the stratum corneum water content; transepidermal water loss; skin viscoelasticity; skin color; facial image analysis by photographing with a digital imaging device (VSIA); and skin blood flow measurement with a non-contact blood flow meter.
(§5) The subjects executed the inhalation for five minutes each time in the morning and evening and approximately 1 hour after each meal, as in the single time test, with the goal of using five times a day.
as §3, with “below. […]” for “below.”
(§6) The p-value was calculated as the probability to determine whether there was a statistically significant difference in the difference average values of the respective groups, and the effect size was calculated as an index representing the magnitude of the difference between the difference average values, so that the two groups are compared with each other.

[5] = hydrogen continuous use period 2 weeks, difference not significant
Experimental: as §2, §4, §5, §3
The measurements were performed at zero, second and fourth weeks.

[6] = remark: listed apart in the source
Experimental: as §2, §4, §5, §3
Skin images of the measurement site were photographed using VISIA (registered trademark) Evolution (Canfield Imaging Systems), and each skin property was analyzed. The software attached to the device was used to measure the scores of pores, spots, wrinkles, texture, redness, porphyrin, and brown spots. The measurements were performed at zero, second and fourth weeks.
as §6

[7] = hydrogen continuous use period vs non-continuous use period
[8] = hydrogen continuous use period vs nonuse period

Structure (SMILES): [HH] [hydrogen]
- pupil expanding speed (vd) ([1]; after hydrogen inhalation (not shown)): almost unchanged
- pupil contraction rate in the pupil reaction to light ([1]; after hydrogen inhalation for 1, 3, 5, 7 and 9 minutes (FIG. 6)): increased significantly in a time-dependent manner
- pupil contraction rate CR ([1]; after hydrogen inhalation, especially 5 minutes or more, vs before inhalation, p<0.001): significantly increased
- skin temperature of the index finger, average increase ([2]; hydrogen inhalation for 5 minutes vs control, 17 subjects, p<0.001): 3.6 °C
- skin temperature of the forehead, change ([2]; hydrogen inhalation for 5 minutes vs spontaneous breathing control): hardly found to change
- skin temperature of the index finger, increase in individual subjects ([2]; hydrogen inhalation for 5 minutes, some subjects): ≥ 6 °C
- skin (stratum corneum) water content, difference average value ([3]; 5 min about five times a day): +34.9 μS
- transepidermal water loss, difference average value [3]: +34.9
- instantaneous skin return rate R7 (Ur/Uf), difference average value ([4]; hydrogen continuous use period 2 weeks, cheek, p 0.028 vs nonuse period): 0.01
- R7 (Ur/Uf) effect size ([4]; hydrogen continuous use period vs hydrogen nonuse period): 0.74
- skin return rate R2, difference average value ([4]; hydrogen use period 2 weeks, cheek, p 0.076 vs nonuse period): 0.01
- skin color ΔL* (black and white degree), difference average value ([5]; cheek): +0.30
- skin color Δa* (redness degree), difference average value ([5]; cheek): −0.23
- skin color Δb* (yellowness degree), difference average value ([5]; cheek): −0.20
- skin blood flow changes, difference average value ([5]; entire face): −0.20
- number of porphyrins, difference average value ([6]; hydrogen continuous use period 2 weeks, difference not significant): −103.05
- number of spots, difference average value ([6]; hydrogen continuous use period 2 weeks, p 0.0012 vs nonuse period): −1.8
- redness of the skin color, difference average value ([6]; hydrogen continuous use period 2 weeks, p 0.042 vs non-continuous use period): −5.1
- number of brown spots, difference average value ([6]; hydrogen continuous use period 2 weeks, p 0.046 vs nonuse period): −13.7
- VISIA pores, measured values [6, 7]: no difference
- VISIA texture, measured values [6, 7]: no difference
- VISIA wrinkles, measured values [6, 7]: no difference
- redness, effect size [6, 7]: 0.65
- number of brown spots, effect size [6, 8]: 0.68
- number of spots, effect size [6, 8]: 0.86
